Test results as given in BindingDB's records for doi:10.1093/toxsci/kfq269 (Amgen, 2010).

Biological target: Bile salt export pump (Homo sapiens, UniProt O95342)
Experiment: ChEBML_1661982
Procedure: Inhibition of human BSEP expressed in fall armyworm sf9 cell plasma membrane vesicles assessed as reduction in vesicle-associated [3H]-taurocholate transport preincubated for 10 mins prior to ATP addition measured after 15 mins in presence of [3H]-taurocholate by topcount based membrane vesicle transport assay

IC50: > 135 µM
SMILES: O=C1OC2(c3ccc(O)cc3Oc3cc(O)ccc32)c2ccccc21
